According to US9949976B2, “Kinase inhibitor and use thereof” (Sihuan Pharmaceutical Holdings Group Ltd., priority 2013, dated 2018):

What was measured:
[1] = PK in Colo-205 subcutaneous tumor model of BALB/c nude mouse; format: in vivo; conditions: female, plasma, Colo-205 tumor-bearing nude mouse, PO QD 22 days, after last administration
Method: Test animal: female nude mouse (BALB/c), 8 mice/dose group/test compound, weight: 19-27 g/mouse.
COLO205 cancer cells were cultured in RPMI-1640 medium containing inactivated 10% fetal bovine serum, 100 U/mL penicillin, 100 μg/mL streptomycin and 2 mM glutamine, in a 37° C., 5% CO2 incubator. The initial concentration of cell culture was 5×10^5 cells/mL, and the cells were transferred to other bottles every 3 or 4 days and passaged. Tumor cells in exponential growth phase were used for in vivo tumor seeding.
COLO205 tumor cells suspended in PBS were seeded subcutaneously to right lateral thorax of experimental animal at 1×10^7 cells/0.1 mL, and the animal was sacrificed when the tumor grew to a volume of 800 mm^3 to 1000 mm^3; under aseptic conditions, tumors were peeled off, and necrotic tissues were removed; the well-grown tumor tissues were selected; the tumor cells were isolated and subjected to primary culture and proliferation, and then were subcutaneously seeded to animal. The tumor cells were passaged for two generations in mice by this method, and the primary culture cells were seeded subcutaneously to right lateral thorax of experimental animal, at 5×10^6 cells/0.1 mL per animal. When tumor grew to a volume of about 100 mm^3, the animals were grouped and administered. For oral administration, the administration volume is 0.1 mL/10 g body weight of animal.
Blood collection: blood was collected from intraocular canthus. After the last administration (22th Day) of control agent and compound 1, blood/tumor was collected at the same time points, wherein 8 nude mice for each dose group were divided into A and B groups
A group (No. 1-4): blood was collected at 15 min, 1 h and 2 h, and the mouse was sacrificed after blood collection at 2 h;
B group (No. 5-8): blood was collected at 4 h, 8 h and 24 h, and the mouse was sacrificed after blood collection at 24 h;
100 μL whole blood at each time point was collected and added to an anticoagulation tube containing K2EDTA, and centrifuged at 4500 r/min at 4° C. in a high speed centrifuge for 5 min to separate the plasma; the plasma was stored in a refrigerator at −80° C.
The plasma samples of control agent and compound 1 were analyzed by precipitation of protein: to 50 μL plasma, 150 μL internal standard (acetonitrile solution containing 50 ng/mL dexamethasone) was added; the resultant mixture was vortexed at 1500 r/min for 3 min, and centrifuged at 4000 r/min for 20 min; to 100 μL supernatant, 100 μL water was added; the resultant mixture was mixed homogeneously under vortexing and analyzed by LC-MS/MS.

[2] = In vivo assay for blood brain barrier permeability in rat; conditions: male, SD, 30 mg/kg, PO
Method: Test animal: male SD rat, 3 rats/test compound/time point, weight: 250-300 g/rat
After separate PO administration of control agent and compound 1, blood was collected by cardiac puncture at 2, 4, 24 and 48 h; about 8 ml whole blood was collected, and placed in a centrifuge tube containing K2EDTA anticoagulant agent; cerebrospinal fluid and brain tissue were also collected at the same time, 3 rats at each time point. The collected whole blood was centrifuged at 3000 r/min at 4° C. in a high speed centrifuge for 10 min to separate the plasma; and the plasma was stored in a refrigerator at −80° C. After sample collection, the concentrations of control agent and compound 1 in plasma, brain tissue and cerebrospinal fluid were determined, respectively.
The plasma samples of control agent and compound 1 were analyzed by precipitation of protein: the test samples were taken from the refrigerator (−80° C.), thawed at room temperature, and then vortexed for 3 min; to 30 μL plasma, 200 μL internal standard (acetonitrile solution containing 25 ng/mL PD0332991) was added; the resultant mixture was vortexed for 10 min at 1500 r/min, and centrifuged at 4000 r/min for 20 min; to 100 μL supernatant, 100 μL water was added; the resultant mixture was mixed homogeneously under vortexing and analyzed by LC-MS/MS.
The brain tissue and cerebrospinal fluid samples for control agent and compound 1 were analyzed by precipitation of protein: the test samples were taken from the refrigerator (−80° C.), thawed at room temperature, and then vortexed for 3 min; to 20 μL homogenated brain tissue sample, 200 μL internal standard (a solution of methanol and water at 1:1 containing 40 ng/mL dextromethorphan and 50 ng/mL dextrorphan) was added; the resultant mixture was vortexed for 3 min at 1500 r/min, and centrifuged at 4° C., 4000 g for 5 min; to 100 μL supernatant, 50 μL 0.1% formic acid-water was added; the resultant mixture was mixed homogeneously under vortexing and analyzed by LC-MS/MS. Cerebrospinal fluid sample was treated by the same way as the homogenated brain tissue sample.

SMILES	AUC(0-t) ([1]; 25 mg/kg) [ng·h/mL]	Cmax ([1]; 25 mg/kg) [ng/mL]	Tmax ([1]; 25 mg/kg) [h]	AUC(0-t) ([1]; 100 mg/kg) [ng·h/mL]	Cmax ([1]; 100 mg/kg) [ng/mL]	Tmax ([1]; 100 mg/kg) [h]	AUC(0-t) ([2]; dose 30, brain tissue) [ng·h/mL]	Cmax ([2]; dose 30, brain tissue) [ng/mL]	Tmax ([2]; dose 30, brain tissue) [h]	AUC(0-t) ([2]; dose 30, cerebrospinal fluid) [ng·h/mL]	Cmax ([2]; dose 30, cerebrospinal fluid) [ng/mL]	Tmax ([2]; dose 30, cerebrospinal fluid) [h]	AUC(0-t) ([2]; dose 30, plasma) [ng·h/mL]	Cmax ([2]; dose 30, plasma) [ng/mL]	Tmax ([2]; dose 30, plasma) [h]
CCN1CCN(Cc2ccc(Nc3ncc(F)c(-c4cc(F)c5nc(C)n(C(C)C)c5c4)n3)nc2)CC1 [LY2835219, reference compound]	9120	733	4	23000	1080	8	18100	673	4	451	11.8	4	40500	1500	4
CCN1CCN(Cc2cnc(Nc3cc(-c4cc(F)c5nc(C)n(C(C)C)c5c4)c(F)cn3)nc2)CC1 [Compound 1, 5-((4-ethylpiperazin-1-yl)methyl)-N-(5-fluoro-4-(4-fluoro-1-isopropyl-2-methyl-1H-benzo[d]imidazol-6-yl)pyridin-2-yl)pyrimidin-2-amine]	12300	1140	2	48300	2420	8	12100	535	4	1290	106	4	49200	2610	4
